In patent US5162304A, “Pharmaceutical compositions and methods for treatment and prophylaxis of cancer” (priority 1990, dated 1992):

Legend:
[1] = system: Ehrlich's mouse ascites carcinoma cells; experiment: Test 7 and Comparing Tests 3 and 4: survival of mice inoculated with Ehrlich's mouse ascites carcinoma cells; format: in vivo, male C57BL/6 mice; conditions: bleomycin alone; for Number of surviving mice: of 8
Description: 5-week old male C57BL/6 mice were intraperitoneally inoculated with 10^6 Ehrlich's mouse ascites carcinoma cells. Since 24 hours later, a 50 μg/ml solution of bleomycin in 0.25% HCO-60 solution in physiological saline, and a suspension containing 50 μg/ml of bleomycin and 5 μg/ml of 14-methyl-1-pentadecanol were intraperitoneally injected at a dose of 10 mg/kg·day and 11 mg/kg·day, respectively, to each 8 animals/group for 5 days. The survival time of the injected mice was then followed.

[2] = system: Ehrlich's mouse ascites carcinoma cells; experiment: Tests 4, 5 and Comparing Test 1: cytocidal activity of bleomycin alone or with isomonool, Ehrlich's cells; format: cell-based
Description: (§1) The cytocidal activity (IC90) of bleomycin was evaluated when used alone or used in combination with 14-methyl-1-pentadecanol or 14-methyl-1-hexadecanol, using Ehrlich's mouse ascites carcinoma cells and human lung tumor A549 cells.

[3] = system: human lung carcinoma A549 cells; experiment: Tests 4, 5 and Comparing Test 1: cytocidal activity of bleomycin alone or with isomonool, A549 cells; format: cell-based
Description: as §1

Ehrlich's ascites cells = experiment: Test 6 and Comparing Test 2: uptake of bleomycin into Ehrlich's ascites cells; format: cell-based, mouse; conditions: bleomycin alone

bleomycin [reference compound]
mean survival time after inoculation ([1]; i.p., 10 mg/kg.day for 5 days (Comparing test 3)): 33.3 days | Number of surviving mice ([1]; day 14): 7 | Number of surviving mice ([1]; day 15): 6 | Number of surviving mice ([1]; day 16): 6 | Number of surviving mice ([1]; day 17): 6 | Number of surviving mice ([1]; day 18): 6 | Number of surviving mice ([1]; day 19): 6 | Number of surviving mice ([1]; day 20): 6 | Number of surviving mice ([1]; day 23): 4 | Number of surviving mice ([1]; day 33): 3 | Number of surviving mice ([1]; day 41): 2 | Number of surviving mice ([1]; day 45): 2 | Number of surviving mice ([1]; day 52): 2 | Number of surviving mice ([1]; day 57): 1 | Number of surviving mice ([1]; day 60): 1 | Cytocidal activity (IC90) of bleomycin alone [2]: 20 µg/mL | Cytocidal activity (IC90) of bleomycin alone [3]: 44 µg/mL | Bleomycin uptake (Ehrlich's ascites cells; 30 min): 0.03 μg/mg Ehrlich's cell | Bleomycin uptake (Ehrlich's ascites cells; 60 min): 0.06 μg/mg Ehrlich's cell | Bleomycin uptake (Ehrlich's ascites cells; 120 min): 0.12 μg/mg Ehrlich's cell | Bleomycin uptake (Ehrlich's ascites cells; 180 min): 0.13 μg/mg Ehrlich's cell | Bleomycin uptake (Ehrlich's ascites cells; Initial): 0 μg/mg Ehrlich's cell
